Assay results as given in patent US9353149B2, “Compounds, compositions and methods for the treatment of diseases through inhibiting TGF-β activity” (Southern Research Institute, priority 2013, dated 2016).
Marks after values point to notes of the source that are not given here. Each block holds one compound with its values, some of them ahead of it. Residues, ends and D or L forms follow the SMILES beside them.

Columns and labels:
[1] = molecular target: Recombinant latent TGF-beta incubated with TSP1 (Homo sapiens, UniProt P07996); assay: TSP1 activation of recombinant latent TGF-beta, ELISA specific for active TGF-beta; assay type: biochemical; conditions: latent TGF-beta 500 pM, TSP1 48 nM, compounds 1-100 pM; read-out: Activity (IC 50)
Method: The assay for the IC 50 (Activity) data in Table 1 was as follows: Recombinant latent TGF-beta (500 pM) is incubated with TSP1 (48 nM) in the absence or presence of increasing concentrations of the identified compounds (1-100 pM). TGF-beta activity in the samples was measured using an ELISA specific for active TGF-beta (R&D Systems). IC50 values were calculated from the curves.

[2] = test system: human CAG-heparanase myeloma cells; assay: Systemic SCID-CAG-heparanase multiple myeloma model; assay type: in vivo, Male SCID mice; conditions: for Human serum κ / IL-6 / Serum TRAcP 5b: osmotic pump, 4 weeks
Method: The Table 2 below provides an analysis of the systemic SCID-CAG-heparanase model treated with increasing doses of Compound No 1 according to the present invention.
Table 2: Analyses of the Systemic SCID-CAG-Heparanase Model Treated with Increasing Doses of Compound No 1
Male SCID mice were injected via tail vein with 1.7×10^6 CAG-hpse cells and tumors allowed to establish over 2 weeks. Groups were randomized according to serum human kappa levels (n=15/group). Treatments were initiated at 2 weeks and continued for 4 weeks. Mice were treated with either saline or 0.3, 3.0, or 30 mg/kg/day of Compound No 1 peptide delivered by osmotic pumps. Pumps were replaced after 2 weeks and fresh peptide and pumps installed. *p<0.05 vs saline.

[3] = Plasma pharmacokinetics after single intravenous and oral administration; assay type: in vivo, male Swiss Albino mice
[4] = Plasma stability half-life; assay type: in vitro ADME
Description: Peptides comprising the amino acid sequence LSKL, including the tetrapeptide LSKL, for inhibiting TGF-β activity and the use of these peptides and certain functional derivatives thereof for the treatment of kidney disease are described in U.S. Pat. No. 6,384,189 and U.S. Pat. No. 6,458,767. It is desirable to employ small molecules such as, e.g., LSKL because they are easier to synthesize and, thus, less costly. […] Accordingly, there is a need for small molecules which affect the activation of TGF-β and which also have an extended plasma stability half-life.

TSP1-TGF-β activation = conditions: cited from earlier work
[5] = male, Swiss Albino, mouse, iv, 1 mg/kg
[6] = male, Swiss Albino, mouse, po, 3 mg/kg

Chain of Recombinant latent TGF-beta incubated with TSP1 (P07996 19-1170): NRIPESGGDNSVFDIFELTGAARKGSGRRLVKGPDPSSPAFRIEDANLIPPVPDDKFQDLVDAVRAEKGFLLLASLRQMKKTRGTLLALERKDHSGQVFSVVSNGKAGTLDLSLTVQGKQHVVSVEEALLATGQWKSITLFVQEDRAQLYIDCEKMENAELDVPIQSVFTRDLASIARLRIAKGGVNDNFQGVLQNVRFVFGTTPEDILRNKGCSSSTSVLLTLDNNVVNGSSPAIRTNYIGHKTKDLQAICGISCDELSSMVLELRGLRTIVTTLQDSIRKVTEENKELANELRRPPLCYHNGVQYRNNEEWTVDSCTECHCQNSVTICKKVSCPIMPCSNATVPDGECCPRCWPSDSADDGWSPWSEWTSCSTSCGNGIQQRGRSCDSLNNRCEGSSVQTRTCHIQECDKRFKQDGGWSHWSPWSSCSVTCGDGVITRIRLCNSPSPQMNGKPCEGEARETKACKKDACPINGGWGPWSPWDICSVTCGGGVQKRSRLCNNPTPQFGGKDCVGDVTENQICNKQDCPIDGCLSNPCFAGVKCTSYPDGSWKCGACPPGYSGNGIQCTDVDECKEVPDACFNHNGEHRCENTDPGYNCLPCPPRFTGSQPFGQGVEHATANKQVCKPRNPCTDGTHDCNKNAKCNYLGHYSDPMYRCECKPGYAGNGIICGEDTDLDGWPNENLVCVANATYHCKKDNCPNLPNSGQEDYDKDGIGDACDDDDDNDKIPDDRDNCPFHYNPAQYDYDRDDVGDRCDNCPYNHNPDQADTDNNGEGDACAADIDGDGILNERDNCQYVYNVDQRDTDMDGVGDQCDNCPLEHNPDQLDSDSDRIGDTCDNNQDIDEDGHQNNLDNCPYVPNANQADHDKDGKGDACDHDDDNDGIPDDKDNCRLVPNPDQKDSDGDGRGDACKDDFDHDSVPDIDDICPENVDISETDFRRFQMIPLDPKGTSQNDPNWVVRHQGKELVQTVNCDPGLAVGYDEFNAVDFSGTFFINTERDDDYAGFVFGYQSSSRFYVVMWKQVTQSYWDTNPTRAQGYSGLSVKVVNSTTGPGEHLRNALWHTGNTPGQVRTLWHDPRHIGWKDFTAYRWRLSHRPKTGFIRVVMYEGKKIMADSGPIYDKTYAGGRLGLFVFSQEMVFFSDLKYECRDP

Structure (SMILES): CC(=O)N[C@@H](CO)C(=O)N[C@@H](CCCCN)C(=O)N[C@@H](CC(C)C)C(N)=O [Compound 1] (Ac-Ser-Lys-Leu-NH2)
IC50 [1]: 0.001 to 0.01 nM
Human serum κ ([2]; 0.3 mg/kg/day): 5134 ± 696 ng/mL
IL-6 ([2]; 0.3 mg/kg/day): 70.2 ± 4.7 pg/mL
Serum TRAcP 5b ([2]; 0.3 mg/kg/day): 3.6 +/− 0.28 U/L
Human serum κ ([2]; 3.0 mg/kg/day): 3465 +/− 422* ng/ml
IL-6 ([2]; 3.0 mg/kg/day): 40.0 +/− 4.2* pg/ml
Serum TRAcP 5b ([2]; 3.0 mg/kg/day): 2.8 +/− 0.15* U/L
tibial bone loss (FIG. 1) ([2]; 30 mg/kg dose, SCID/CAG-hpse MM model): reducing tibial bone loss
TRAP^+ OC/mm BS ([2]; 30 mg/kg/day): 1.0 +/− 0.2*
p-Smad 2 IHC in bone marrow ([2]; 30 mg/kg/day): 2390 +/− 472* arbitrary units
μCT (tibia) BV/TV ([2]; 30 mg/kg/day, n = 4): 0.13 +/− 0.01*
μCT (tibia) TbN ([2]; 30 mg/kg/day, n = 4): 4.03 +/− 0.28*
μCT (tibia) TbSp ([2]; 30 mg/kg/day, n = 4): 0.25 +/− 0.02*
Human serum κ ([2]; 30 mg/kg/day): 2593 +/− 443* ng/ml
IL-6 ([2]; 30 mg/kg/day): 31.8 +/− 4.0* pg/ml
Serum TRAcP 5b ([2]; 30 mg/kg/day): 2.5 +/− 0.13* U/L
Co ([3]; i.v., 1 mg/kg): 1025.73 ng/mL
AUC(0-inf) [3, 5]: 1380 ng·h/mL
AUC(0-t) [3, 5]: 1210 ng·h/mL
clearance [3, 5]: 12.1 mL/min/kg
half-life [3, 5]: 637 min
Vd ([3]; male, Swiss Albino, mouse, iv, 1 mg/kg, read-out: Vss): 6.31 L/kg
bioavailability ([3]; male, Swiss Albino, mouse, oral 3 mg/kg vs i.v. 1 mg/kg): 24%
AUC(0-inf) [3, 6]: 1070 ng·h/mL
AUC(0-t) [3, 6]: 875 ng·h/mL
Cmax [3, 6]: 208 ng/mL
Tmax [3, 6]: 30 min

Structure (SMILES): CC(=O)N[C@H](C(=O)N[C@@H](CCCCN)C(=O)N[C@@H](CC(C)C)C(N)=O)C(C)O (some centres unmarked) [Compound 2] (HELM PEPTIDE1{[ac].[CC(O)[C@H](N[*:1])C(=O)[*:2]].K.L.[am]}$$$$V2.0)
IC50 [1]: 0.05 to 0.1 nM

Structure (SMILES): CNC(=O)[C@H](CC(C)C)NC(=O)[C@H](CCCCN)NC(=O)[C@H](CO)NC(C)=O [Compound 13] (HELM PEPTIDE1{[ac].S.K.L.[CN[*:1]]}$$$$V2.0)
IC50 [1]: 0.05 to 0.1 nM

Structure (SMILES): CC(=O)N[C@@H](CO)C(=O)N[C@@H](CCCCN(C)C)C(=O)N[C@@H](CC(C)C)C(N)=O [Compound 22] (HELM PEPTIDE1{[ac].S.[CN(C)CCCC[C@H](N[*:1])C(=O)[*:2]].L.[am]}$$$$V2.0)
IC50 [1]: 0.1 to 0.5 nM

Structure (SMILES): CC(=O)N[C@@H](CO)C(=O)N[C@@H](CCCCN)C(=O)N[C@@H](CC1CC1)C(N)=O [Compound 37] (HELM PEPTIDE1{[ac].S.K.[O=C([C@H](CC1CC1)N[*:1])[*:2]].[am]}$$$$V2.0)
IC50 [1]: 0.05 to 0.1 nM

Structure (SMILES): CC(=O)NCCCC[C@H](NC(=O)[C@H](CO)NC(C)=O)C(=O)N[C@@H](CC(C)C)C(N)=O [Compound 99] (Ac-Ser-Lys(Ac)-Leu-NH2)
IC50 [1]: 0.1 to 0.5 nM

Structure (SMILES): CCC(=O)N[C@@H](CO)C(=O)N[C@@H](CCCCN)C(=O)N[C@@H](CC(C)C)C(N)=O [Compound 101] (HELM PEPTIDE1{[CCC(=O)[*:2]].S.K.L.[am]}$$$$V2.0)
IC50 [1]: 0.1 to 0.5 nM

Structure (SMILES): CC(C)C[C@H](NC(=O)[C@H](CCCCN)NC(=O)[C@H](CO)NC(=O)[C@@H](N)CC(C)C)C(=O)O [LSKL, leucine-serine-lysine-leucine] (H-LSKL-OH; N-terminus and C-terminus assumed)
half-life [4]: 2.1 min
necropsy findings (TSP1-TGF-β activation; after 15 weeks of 30 mg/kg i.p., 3 times weekly): no inflammation, no tumors in all major organs, and no impairment of wound healing
Smad signaling and dermal wound healing (TSP1-TGF-β activation; systemic administration, diabetic mice): did not reduce Smad signaling or impair dermal wound healing

The remaining lines, values ahead:

IC50 [1]: 0.1 to 0.5 nM
Structure (SMILES): CC(=O)N[C@@H](CO)C(=O)N[C@@H](CCCCN)C(=O)N(C)[C@@H](CC(C)C)C(N)=O [Compound 10] (HELM PEPTIDE1{[ac].S.K.[meL].[am]}$$$$V2.0)

IC50 [1]: 0.001 to 0.01 nM
Structure (SMILES): CNC(=O)[C@H](CC(C)C)NC(=O)[C@@H](CCCCN)NC(=O)[C@@H](NC(C)=O)C(C)O (some centres unmarked) [Compound 14] (HELM PEPTIDE1{[ac].[CC(O)[C@H](N[*:1])C(=O)[*:2]].[dK].L.[CN[*:1]]}$$$$V2.0)

IC50 [1]: 0.1 to 0.5 nM
Structure (SMILES): CC(=O)N[C@H](CO)C(=O)N[C@@H](CCCCN)C(=O)N[C@@H](CC(C)C)C(N)=O [Compound 94] (HELM PEPTIDE1{[ac].[dS].K.L.[am]}$$$$V2.0)

IC50 [1]: 0.001 to 0.01 nM
Structure (SMILES): CC(=O)N[C@@H](CO)C(=O)N[C@H](CCCCN)C(=O)N[C@@H](CC(C)C)C(N)=O [Compound 95] (HELM PEPTIDE1{[ac].S.[dK].L.[am]}$$$$V2.0)

IC50 [1]: 0.05 to 0.1 nM
Structure (SMILES): CC(=O)N[C@@H](CO)C(=O)N[C@@H](CCCCN)C(=O)N[C@H](CC(C)C)C(N)=O [Compound 96] (HELM PEPTIDE1{[ac].S.K.[dL].[am]}$$$$V2.0)

IC50 [1]: 0.1 to 0.5 nM
Structure (SMILES): CC(=O)N[C@@H](CO)C(=O)N[C@@H](CCCCN)C(=O)N[C@@H](CC(C)C)C(=O)N(C)C [Compound 97] (HELM PEPTIDE1{[ac].S.K.L.[CN(C)[*:1]]}$$$$V2.0)

IC50 [1]: 0.1 to 0.5 nM
Structure (SMILES): CNCCCC[C@H](NC(=O)[C@H](CO)NC(C)=O)C(=O)N[C@@H](CC(C)C)C(N)=O [Compound 98] (HELM PEPTIDE1{[ac].S.[CNCCCC[C@H](N[*:1])C(=O)[*:2]].L.[am]}$$$$V2.0)

IC50 [1]: 0.1 to 0.5 nM
Structure (SMILES): COC[C@H](NC(C)=O)C(=O)N[C@@H](CCCCN)C(=O)N[C@@H](CC(C)C)C(N)=O [Compound 100] (Ac-Ser(Me)-Lys-Leu-NH2)
